This series deals with CYP3A4. The series can be described thus: Inhibition of tegoprazan metabolism in human liver microsomes by CYP inhibitors. In kind it is in vitro ADME. As to conditions: in-house data. The text has this: The major metabolic pathway of tegoprazan is the liver, and a negligible amount is excreted by urine. Both in vitro and clinical results have elucidated that tegoprazan is a potential substrate of cytochrome P450 (CYP) 3A4. […] According to the label of tegoprazan, systemic exposure to tegoprazan increases when tegoprazan is co-administered with clarithromycin. Based on the in vitro and clinical data, it can be inferred that drug–drug interaction (DDI) between tegoprazan and CYP3A4 inhibitor may occur. However, the clinical DDI studies of tegoprazan conducted so far have been limited to the DDI between tegoprazan and clarithromycin or clarithromycin and amoxicillin, because tegoprazan is likely to be administered with these medications for Helicobacter pylori eradication. Considering the substantial prevalence of acid-related diseases, tegoprazan is likely to be administered in combination with various drugs. […]
The elimination of the PBPK model consisted of enzyme kinetic and renal clearance (Table 1). Intrinsic clearances (CLint) of tegoprazan by various CYPs were determined by an in vitro study that measured the fraction of CLint inhibited by adding the inhibitors of CYP1A2, CYP2C9, CYP2C19, CYP2D6, and CYP3A to human liver microsomes (in-house data). […]

This note sets out measurements from PMC8464955, “Prediction of Drug–Drug Interaction Potential of Tegoprazan Using Physiologically Based Pharmacokinetic Modeling and Simulation” (Pharmaceutics, 2021).

As to `CC(=O)N1CCN(c2ccc(OCC3COC(Cn4ccnc4)(c4ccc(Cl)cc4Cl)O3)cc2)CC1` (stereo not shown) [ketoconazole], the “effect of CYP inhibitor on the metabolism of tegoprazan” value is “significantly inhibited”.
